According to BigSolDB 2.1:

COP(=O)(NC(C)=O)SC (stereo unspecified)
Settings	solubility (mole fraction)
in acetone, 299.45 K	0.068
in acetone, 302.6 K	0.0811
in acetone, 305.2 K	0.0923
in acetone, 306.4 K	0.0986
in acetone, 309.8 K	0.119
in acetone, 311.4 K	0.131
in acetone, 313.75 K	0.149
in acetone, 315.8 K	0.167
in dichloromethane, 292.9 K	0.176
in dichloromethane, 295.2 K	0.19
in dichloromethane, 297.3 K	0.203
in dichloromethane, 298.45 K	0.21
in dichloromethane, 299.6 K	0.217
in dichloromethane, 301.05 K	0.226
in dichloromethane, 302.3 K	0.233
in dichloromethane, 303.25 K	0.241
in ethyl acetate, 307.9 K	0.035
in ethyl acetate, 310.75 K	0.0408
in ethyl acetate, 314.2 K	0.049
in ethyl acetate, 318.4 K	0.0648
in ethyl acetate, 321.55 K	0.0779
in ethyl acetate, 324.95 K	0.0965
in ethyl acetate, 327.6 K	0.118
in isopropanol, 299.3 K	0.0606
in isopropanol, 303.95 K	0.0773
in isopropanol, 306.7 K	0.0925
in isopropanol, 310.75 K	0.118
in isopropanol, 313.35 K	0.137
in isopropanol, 316.45 K	0.163
in isopropanol, 319.45 K	0.193
in isopropanol, 322 K	0.224
